Starred links: 1 amine or outer side, 2 acyl side, 3 side chain; linkers in the order of their positions; H or OH if unused. Non-standard residues stand in square brackets, D forms with d. Residues, ends and D or L forms follow the SMILES beside them. Trp(4-Cl)(βS-Me) = C[C@@H](c1c[nH]c2cccc(Cl)c12)[C@H](N)C(=O)O; Trp(βS-Me,4-F) = C[C@@H](c1c[nH]c2cccc(F)c12)[C@H](N)C(=O)O; Bip(4'-COOH) = N[C@@H](Cc1ccc(-c2ccc(C(=O)O)cc2)cc1)C(=O)O; Ala(1-bicyclo(1.1.1)pentyl) = N[C@@H](CC12CC(C1)C2)C(=O)O; dPro(4R-Bzl(4-F)) = O=C(O)[C@H]1C[C@@H](Cc2ccc(F)cc2)CN1; X19 = O=C([C@H]1C[C@@H](Cc2ccc(Br)cc2)CN1[*:1])[*:2]; 1Nal(3S-Me) = C[C@@H](c1cccc2ccccc12)[C@H](N)C(=O)O; Ala(pyrimidin-5-yl) = N[C@@H](Cc1cncnc1)C(=O)O; Phe(4-COOH) = N[C@@H](Cc1ccc(C(=O)O)cc1)C(=O)O; dαMeDab = C[C@](CCN[*:3])(N[*:1])C(=O)[*:2]; Pro(cis-4-F) = O=C(O)[C@@H]1C[C@H](F)CN1; Ala(4-THP) = N[C@@H](CC1CCOCC1)C(=O)O; aIle = CC[C@@H](C)[C@H](N)C(=O)O; d(αMeK) = C[C@@](N)(CCCCN)C(=O)O; 4Pal = N[C@@H](Cc1ccncc1)C(=O)O; aThr = C[C@H](O)[C@H](N)C(=O)O; αMeD = C[C@](N)(CC(=O)O)C(=O)O; αMeK = C[C@](N)(CCCCN)C(=O)O; hSer = N[C@@H](CCO)C(=O)O; Dab = NCC[C@H](N)C(=O)O; Aib = CC(C)(N)C(=O)O
Each compound was assayed against T1, IL-1β (Homo sapiens, UniProt P01584) (assay: IL-6 assay in MRC5 cells: inhibition of IL-1β induced IL-6 secretion (AlphaLISA)). Conditions: inhibition of IL-1β induced IL-6 secretion in MRC5 cells; read-out: MRC5 IC50.
T1 construct: purchased BioLegend 579404
Format: cell-based
In short: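 Compound was pre-incubated 1 h at ambient temperature with recombinant human IL-1β at 2λ EC80 before adding human lung fibroblast MRC5 cells (3000/well) in EMEM with 0.025% BSA. After overnight culture at 37 °C, 5% CO2, secreted IL-6 in conditioned medium was measured by AlphaLISA; IC50 from 4-parameter logistic fits.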

T1 sequence (P01584 117-269): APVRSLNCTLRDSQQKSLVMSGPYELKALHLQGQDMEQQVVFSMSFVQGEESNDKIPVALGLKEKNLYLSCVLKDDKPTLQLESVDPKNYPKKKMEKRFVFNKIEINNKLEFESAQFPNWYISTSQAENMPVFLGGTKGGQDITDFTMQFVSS

Row | SMILES | IC50 [nM]
1 | C[C@@H](c1c[nH]c2cccc(Cl)c12)[C@@H]1NC(=O)[C@@H]2C[C@H](F)CN2C(=O)CNC(=O)[C@H](Cc2ccc(C(=O)O)cc2)NC(=O)[C@H](Cc2ccncc2)NC(=O)[C@H](Cc2ccc(-c3ccc(C(=O)O)cc3)cc2)NC(=O)[C@H]2C[C@@H](Cc3ccc(F)cc3)CN2C(=O)CNC(=O)[C@H](CCN)NC(=O)[C@H](CCC(N)=O)NC(=O)[C@H](Cc2cncnc2)NC(=O)C(C)(C)NC(=O)[C@H](Cc2c[nH]c3ccccc23)NC(=O)[C@H](CO)NC(=O)C(C)(C)NC1=O [Example 139] (cyclo([Bip(4'-COOH)][4Pal][Phe(4-COOH)]G[Pro(cis-4-F)][Trp(4-Cl)(βS-Me)][Aib]SW[Aib][Ala(pyrimidin-5-yl)]Q[Dab]G[dPro(4R-Bzl(4-F))])) | 0.034
2 | C[C@@H](c1cccc2ccccc12)[C@@H]1NC(=O)[C@@H]2C[C@H](F)CN2C(=O)CNC(=O)[C@H](Cc2ccc(C(=O)O)cc2)NC(=O)[C@H](Cc2ccncc2)NC(=O)[C@H](Cc2ccc(-c3ccc(C(=O)O)cc3)cc2)NC(=O)[C@H]2C[C@@H](Cc3ccc(F)cc3)CN2C(=O)CNC(=O)[C@H](CCN)NC(=O)[C@H](CCC(N)=O)NC(=O)[C@H](Cc2cncnc2)NC(=O)C(C)(C)NC(=O)[C@H](Cc2c[nH]c3ccccc23)NC(=O)[C@H](CO)NC(=O)C(C)(C)NC1=O [Example 140] (cyclo([Bip(4'-COOH)][4Pal][Phe(4-COOH)]G[Pro(cis-4-F)][1Nal(3S-Me)][Aib]SW[Aib][Ala(pyrimidin-5-yl)]Q[Dab]G[dPro(4R-Bzl(4-F))])) | 0.033
3 | C[C@@H](c1c[nH]c2cccc(F)c12)[C@@H]1NC(=O)[C@@H]2C[C@H](F)CN2C(=O)CNC(=O)[C@H](Cc2ccc(C(=O)O)cc2)NC(=O)[C@H](CC23CC(C2)C3)NC(=O)[C@H](Cc2ccc(-c3ccc(C(=O)O)cc3)cc2)NC(=O)[C@H]2C[C@@H](Cc3ccc(F)cc3)CN2C(=O)CNC(=O)[C@H](CCN)NC(=O)[C@H](CCC(N)=O)NC(=O)[C@H](Cc2cncnc2)NC(=O)[C@](C)(CCCCN)NC(=O)[C@H](Cc2c[nH]c3ccccc23)NC(=O)[C@H](CO)NC(=O)C(C)(C)NC1=O [Example 144] (cyclo([Bip(4'-COOH)][Ala(1-bicyclo(1.1.1)pentyl)][Phe(4-COOH)]G[Pro(cis-4-F)][Trp(βS-Me,4-F)][Aib]SW[αMeK][Ala(pyrimidin-5-yl)]Q[Dab]G[dPro(4R-Bzl(4-F))])) | 0.031
4 | C[C@@H](c1c[nH]c2cccc(F)c12)[C@@H]1NC(=O)[C@@H]2C[C@H](F)CN2C(=O)CNC(=O)[C@H](Cc2ccc(C(=O)O)cc2)NC(=O)[C@H](CC23CC(C2)C3)NC(=O)[C@H](Cc2ccc(-c3ccc(C(=O)O)cc3)cc2)NC(=O)[C@H]2C[C@@H](Cc3ccc(F)cc3)CN2C(=O)CNC(=O)[C@H](CCN)NC(=O)[C@H](CCC(N)=O)NC(=O)[C@H](Cc2cncnc2)NC(=O)[C@@](C)(CCCCN)NC(=O)[C@H](Cc2c[nH]c3ccccc23)NC(=O)[C@H](CO)NC(=O)C(C)(C)NC1=O [Example 145] (cyclo([Bip(4'-COOH)][Ala(1-bicyclo(1.1.1)pentyl)][Phe(4-COOH)]G[Pro(cis-4-F)][Trp(βS-Me,4-F)][Aib]SW[d(αMeK)][Ala(pyrimidin-5-yl)]Q[Dab]G[dPro(4R-Bzl(4-F))])) | 0.041
5 | C[C@@H](c1c[nH]c2cccc(F)c12)[C@@H]1NC(=O)[C@@H]2C[C@H](F)CN2C(=O)CNC(=O)[C@H](Cc2ccc(C(=O)O)cc2)NC(=O)[C@H](CC23CC(C2)C3)NC(=O)[C@H](Cc2ccc(-c3ccc(C(=O)O)cc3)cc2)NC(=O)[C@H]2C[C@@H](Cc3ccc(F)cc3)CN2C(=O)CNC(=O)[C@H](CCN)NC(=O)[C@H](CCC(N)=O)NC(=O)[C@H](CC2CCOCC2)NC(=O)[C@](C)(CCCCN)NC(=O)[C@H](Cc2c[nH]c3ccccc23)NC(=O)[C@H](CO)NC(=O)C(C)(C)NC1=O [Example 146] (cyclo([Bip(4'-COOH)][Ala(1-bicyclo(1.1.1)pentyl)][Phe(4-COOH)]G[Pro(cis-4-F)][Trp(βS-Me,4-F)][Aib]SW[αMeK][Ala(4-THP)]Q[Dab]G[dPro(4R-Bzl(4-F))])) | 0.034
6 | C[C@@H](c1c[nH]c2cccc(F)c12)[C@@H]1NC(=O)[C@@H]2C[C@H](F)CN2C(=O)CNC(=O)[C@H](Cc2ccc(C(=O)O)cc2)NC(=O)[C@H](CC23CC(C2)C3)NC(=O)[C@H](Cc2ccc(-c3ccc(C(=O)O)cc3)cc2)NC(=O)[C@H]2C[C@@H](Cc3ccc(F)cc3)CN2C(=O)CNC(=O)[C@H](CCN)NC(=O)[C@H](CCC(N)=O)NC(=O)[C@H](Cc2cncnc2)NC(=O)[C@](C)(CCCCN)NC(=O)[C@H](Cc2c[nH]c3ccccc23)NC(=O)[C@H](CCO)NC(=O)C(C)(C)NC1=O [Example 147] (cyclo([Bip(4'-COOH)][Ala(1-bicyclo(1.1.1)pentyl)][Phe(4-COOH)]G[Pro(cis-4-F)][Trp(βS-Me,4-F)][Aib][hSer]W[αMeK][Ala(pyrimidin-5-yl)]Q[Dab]G[dPro(4R-Bzl(4-F))])) | 0.045

These reach a lower IC50. Values come first.

Row | IC50 [nM] | SMILES
7 | 0.027 | CC[C@@H](C)[C@@H]1NC(=O)C(C)(C)NC(=O)[C@H]([C@@H](C)c2c[nH]c3cccc(F)c23)NC(=O)[C@@H]2C[C@H](F)CN2C(=O)CNC(=O)[C@H](Cc2ccc(C(=O)O)cc2)NC(=O)[C@H](Cc2ccncc2)NC(=O)[C@H](Cc2ccc(-c3ccc(C(=O)O)cc3)cc2)NC(=O)[C@H]2C[C@@H](Cc3ccc(F)cc3)CN2C(=O)CNC(=O)[C@H](CCN)NC(=O)[C@H](CCC(N)=O)NC(=O)[C@H](Cc2cncnc2)NC(=O)[C@](C)(CCCCN)NC(=O)[C@H](Cc2c[nH]c3ccccc23)NC1=O [Example 136] (cyclo([Bip(4'-COOH)][4Pal][Phe(4-COOH)]G[Pro(cis-4-F)][Trp(βS-Me,4-F)][Aib][aIle]W[αMeK][Ala(pyrimidin-5-yl)]Q[Dab]G[dPro(4R-Bzl(4-F))]))
8 | 0.022 | C[C@@H](O)[C@@H]1NC(=O)C(C)(C)NC(=O)[C@H]([C@@H](C)c2c[nH]c3cccc(F)c23)NC(=O)[C@@H]2C[C@H](F)CN2C(=O)CNC(=O)[C@H](Cc2ccc(C(=O)O)cc2)NC(=O)[C@H](Cc2ccncc2)NC(=O)[C@H](Cc2ccc(-c3ccc(C(=O)O)cc3)cc2)NC(=O)[C@H]2C[C@@H](Cc3ccc(F)cc3)CN2C(=O)CNC(=O)[C@H](CCN)NC(=O)[C@H](CCC(N)=O)NC(=O)[C@H](Cc2cncnc2)NC(=O)[C@](C)(CCCCN)NC(=O)[C@H](Cc2c[nH]c3ccccc23)NC1=O [Example 137] (cyclo([Bip(4'-COOH)][4Pal][Phe(4-COOH)]G[Pro(cis-4-F)][Trp(βS-Me,4-F)][Aib]TW[αMeK][Ala(pyrimidin-5-yl)]Q[Dab]G[dPro(4R-Bzl(4-F))]))
9 | 0.021 | C[C@H](O)[C@@H]1NC(=O)C(C)(C)NC(=O)[C@H]([C@@H](C)c2c[nH]c3cccc(F)c23)NC(=O)[C@@H]2C[C@H](F)CN2C(=O)CNC(=O)[C@H](Cc2ccc(C(=O)O)cc2)NC(=O)[C@H](Cc2ccncc2)NC(=O)[C@H](Cc2ccc(-c3ccc(C(=O)O)cc3)cc2)NC(=O)[C@H]2C[C@@H](Cc3ccc(F)cc3)CN2C(=O)CNC(=O)[C@H](CCN)NC(=O)[C@H](CCC(N)=O)NC(=O)[C@H](Cc2cncnc2)NC(=O)[C@](C)(CCCCN)NC(=O)[C@H](Cc2c[nH]c3ccccc23)NC1=O [Example 138] (cyclo([Bip(4'-COOH)][4Pal][Phe(4-COOH)]G[Pro(cis-4-F)][Trp(βS-Me,4-F)][Aib][aThr]W[αMeK][Ala(pyrimidin-5-yl)]Q[Dab]G[dPro(4R-Bzl(4-F))]))
10 | 0.011 | C[C@@H](c1c[nH]c2cccc(F)c12)[C@@H]1NC(=O)[C@@H]2C[C@H](F)CN2C(=O)CNC(=O)[C@H](Cc2ccc(C(=O)O)cc2)NC(=O)[C@H](Cc2ccncc2)NC(=O)[C@H](Cc2ccc(-c3ccc(C(=O)O)cc3)cc2)NC(=O)[C@H]2C[C@@H](Cc3ccc(F)cc3)CN2C(=O)CNC(=O)[C@H](CCN)NC(=O)[C@H](CCC(N)=O)NC(=O)[C@H](Cc2cncnc2)NC(=O)[C@](C)(CC(=O)O)NC(=O)[C@H](Cc2c[nH]c3ccccc23)NC(=O)[C@H](CO)NC(=O)C(C)(C)NC1=O [Example 141] (cyclo([Bip(4'-COOH)][4Pal][Phe(4-COOH)]G[Pro(cis-4-F)][Trp(βS-Me,4-F)][Aib]SW[αMeD][Ala(pyrimidin-5-yl)]Q[Dab]G[dPro(4R-Bzl(4-F))]))
11 | 0.019 | C[C@@H](c1c[nH]c2cccc(F)c12)[C@@H]1NC(=O)[C@@H]2C[C@H](F)CN2C(=O)CNC(=O)[C@H](Cc2ccc(C(=O)O)cc2)NC(=O)[C@H](Cc2ccncc2)NC(=O)[C@H](Cc2ccc(-c3ccc(C(=O)O)cc3)cc2)NC(=O)[C@H]2C[C@@H](Cc3ccc(F)cc3)CN2C(=O)CNC(=O)[C@H](CCN)NC(=O)[C@H](CCC(N)=O)NC(=O)[C@H](Cc2cncnc2)NC(=O)[C@@](C)(CCN)NC(=O)[C@H](Cc2c[nH]c3ccccc23)NC(=O)[C@H](CO)NC(=O)C(C)(C)NC1=O [Example 142] (cyclo([Bip(4'-COOH)][4Pal][Phe(4-COOH)]G[Pro(cis-4-F)][Trp(βS-Me,4-F)][Aib]SW[dαMeDab][Ala(pyrimidin-5-yl)]Q[Dab]G[dPro(4R-Bzl(4-F))]))
12 | 0.026 | C[C@@H](c1c[nH]c2cccc(F)c12)[C@@H]1NC(=O)[C@@H]2C[C@H](F)CN2C(=O)CNC(=O)[C@H](Cc2ccc(C(=O)O)cc2)NC(=O)[C@H](Cc2ccncc2)NC(=O)[C@H](Cc2ccc(-c3ccc(C(=O)O)cc3)cc2)NC(=O)[C@H]2C[C@@H](Cc3ccc(Br)cc3)CN2C(=O)CNC(=O)[C@H](CCN)NC(=O)[C@H](CCC(N)=O)NC(=O)[C@H](Cc2cncnc2)NC(=O)C(C)(C)NC(=O)[C@H](Cc2c[nH]c3ccccc23)NC(=O)[C@H](CCC(=O)O)NC(=O)C(C)(C)NC1=O [Example 143] (cyclo([Bip(4'-COOH)][4Pal][Phe(4-COOH)]G[Pro(cis-4-F)][Trp(βS-Me,4-F)][Aib]EW[Aib][Ala(pyrimidin-5-yl)]Q[Dab]G[X19]))
